pEC50: −log10 of the molar value.
Tests used:
[1] = test system: Seven breast cancer cell lines with various level of Her2 expression; assay: Overall assessment of anti-HER2 ADCs over the cell panel (efficacy, toxicity, therapeutic window); format: cell-based
Protocol: (§1) The antibody used was an anti-HER2 IgG class of antibody. Seven breast cancer cell lines with various level of Her2 expression as indicated with plus or minus signs in the table below were plated in 96 well plate. The ADCs as listed under Drug-Linker ID were serial diluted and added onto cells for treatment for 5 days. At the end of the study, cell proliferation was measured by Promega's CellTitreGlo.

BT474 (Her2+++) = details: anti-HER2 IgG ADC, treatment 5 days, 50% cell growth inhibition
Protocol: as §1

MDA-453 (Her2++) = details: anti-HER2 IgG ADC, treatment 5 days, 50% cell growth inhibition
Protocol: as §1

MCF-7 (Her2+/−) = details: anti-HER2 IgG ADC, treatment 5 days, 50% cell growth inhibition
Protocol: as §1

JIMT-1 (Her2+++) = details: anti-HER2 IgG ADC, treatment 5 days, 50% cell growth inhibition
Protocol: as §1

MDA468 (Her2−) = details: anti-HER2 IgG ADC; MDA468 (Her2−) control cell line; treatment 5 days; 50% cell growth inhibition
Protocol: as §1

SKBR-3 (Her2+++) = details: anti-HER2 IgG ADC, treatment 5 days, 50% cell growth inhibition
Protocol: as §1

HCC1954 (Her2+++) = details: anti-HER2 IgG ADC, treatment 5 days, 50% cell growth inhibition
Protocol: as §1

| Structure (SMILES) | Assessment of efficacy and toxicity / therapeutic window [1] | pEC50 (BT474 (Her2+++)) | pEC50 (MDA-453 (Her2++)) | pEC50 (MCF-7 (Her2+/−)) | pEC50 (JIMT-1 (Her2+++)) | pEC50 (MDA468 (Her2−)) | pEC50 (SKBR-3 (Her2+++)) | pEC50 (HCC1954 (Her2+++)) |
| --- | --- | --- | --- | --- | --- | --- | --- | --- |
| CCN(C(=O)CNC(=O)OCc1ccc(NC(=O)[C@H](C)NC(=O)[C@@H](NC(=O)CCCC(=O)O)C(C)C)cc1)C1COC(OC2C(O[C@H]3C#C/C=C\C#C[C@]4(O)CC(=O)C(NC(=O)OC)=C3/C4=C\CSSC(C)CCC(=O)NC3C(O)OC(CO)C(O)C3O)OC(C)C(NOC3CC(O)C(SC(=O)c4c(C)c(I)c(OC5OC(C)C(O)C(OC)C5O)c(OC)c4OC)C(C)O3)C2O)CC1OC (stereo partly drawn) [Compound 40] | successful candidates with high efficacy and good therapeutic window | 9.05 | 10.00 | 7.05 | 9.46 | 7.38 | 9.18 | – |
| CCN(C(=O)CNC(=O)OCc1ccc(NC(=O)[C@H](CC(N)=O)NC(=O)[C@H](C)NC(=O)[C@H](C)NC(=O)CCC(=O)N2CCC(C(=O)O)CC2)cc1)C1COC(OC2C(O[C@H]3C#C/C=C\C#C[C@]4(O)CC(=O)C(NC(=O)OC)=C3/C4=C\CSSC(C)(C)CC(=O)NCC(O)CO)OC(C)C(NOC3CC(O)C(SC(=O)c4c(C)c(I)c(OC5OC(C)C(O)C(OC)C5O)c(OC)c4OC)C(C)O3)C2O)CC1OC (stereo partly drawn) [Compound 15] | successful candidates with high efficacy and good therapeutic window | 8.84 | – | < 7.00 | 9.77 | – | 9.77 | 10.19 |
| CCN(C(=O)CNC(=O)OCc1ccc(NC(=O)[C@H](C)NC(=O)[C@@H](NC(=O)CCCC(=O)O)C(C)C)cc1)C1COC(OC2C(O[C@H]3C#C/C=C\C#C[C@]4(O)CC(=O)C(NC(=O)OC)=C3/C4=C\CSSC(C)CCC(=O)NCC(O)CO)OC(C)C(NOC3CC(O)C(SC(=O)c4c(C)c(I)c(OC5OC(C)C(O)C(OC)C5O)c(OC)c4OC)C(C)O3)C2O)CC1OC (stereo partly drawn) [Compound 37] | successful candidates with high efficacy and good therapeutic window | 8.82 | 9.48 | 9.48 | 9.85 | 7.77 | 9.63 | – |
| CCN(C(=O)CNC(=O)OCc1ccc(NC(=O)[C@H](C)NC(=O)[C@@H](NC(=O)CCCn2nnc(CBr)c2CBr)C(C)C)cc1)C1COC(OC2C(O[C@H]3C#C/C=C\C#C[C@]4(O)CC(=O)C(NC(=O)OC)=C3/C4=C\CSSC(C)(C)CCC(=O)NCCOCCOCCOCCO)OC(C)C(NOC3CC(O)C(SC(=O)c4c(C)c(I)c(OC5OC(C)C(O)C(OC)C5O)c(OC)c4OC)C(C)O3)C2O)CC1OC (stereo partly drawn) [Compound 30] | successful candidates with high efficacy and good therapeutic window | 8.85 | 10.30 | 9.30 | 10.05 | 7.62 | 10.19 | – |
